According to publication PMC11727410, “Identification of Chemical Constituents from Leaves and Stems of Alpinia oxyphylla: Potential Antioxidant and Tyrosinase Inhibitory Properties” (Antioxidants, 2024):

Experiments:
[1] = DPPH radical scavenging activity assay; conditions: for Inhibitory rate (%), DPPH (Table S4): Table S4, concentration not given; for DPPH Inhibitory Rate (%): concentration 200 μM; for IC50: converted from μg/mL
Description: The DPPH radical scavenging capacity was measured according to the following reference at room temperature (25 °C). Briefly, 320 μL sample in DMSO with different concentrations (400, 200, 100, 50, 25, 12.5 μM) was reacted with 320 μL DPPH reagent (0.1 mM) in 1.5 mL centrifuge tube away from light for 30 min. Next, 200 μL of the mixture was transferred into a 96-well plate, which was used for measuring the absorbance at 517 nm (ODsample). A control (ODcontrol) and blank (ODblank) were, respectively, established from the mixture solutions of the sample in DMSO and ethanol and the mixture solution of DMSO and DPPH reagent. Vitamin C was the positive control, with the same concentration as the compounds. The DPPH radical scavenging capacity was calculated according to the following:DPPH radical scavenging capacity (%) = [1 − (ODsample − ODcontrol)/ODblank] × 100%

[2] = ABTS radical scavenging activity assay; conditions: for Inhibitory rate (%), ABTS (Table S4): Table S4, concentration not given; for ABTS Inhibitory Rate (%): concentration 200 μM, "-" not active; for IC50: converted from μg/mL
Description: The ABTS radical scavenging activity was examined as previously reported at room temperature (25 °C). Briefly, 160 μL sample in DMSO with different concentrations (800, 400, 200, 100, 50, 25 μM) was reacted with 480 μL ABTS reagent in a 1.5 mL centrifuge tube away from light for 6 min. Next, 200 μL of the mixture was taken out and transferred into a 96-well plate, which was used for measuring the absorbance by a microplate reader at 734 nm (ODsample). The control (ODcontrol) and blank (ODblank) were, respectively, established from the mixture solutions of the sample in DMSO and water and the mixture solution of DMSO and ABTS reagent. Trolox was the positive control, with the same concentration with compounds. The ABTS radical scavenging capacity was calculated as following:ABTS radical scavenging capacity (%) = [1 − (ODsample − ODcontrol)/ODblank] × 100%

[3] = ABTS radical scavenging activity assay; conditions: concentration 100 μg/mL
[4] = test system: B16 cells; assay: MTT assay for cell viability; format: cell-based; conditions: under the selected concentrations
Description: (§1) B16 melanoma cells (PNS-MC-36) were purchased from Procell Life Science & Technology Co., Ltd. (Wuhan, China).
A modified MTT method was applied to screen cell viability. B16 cells were cultured in 96-well plates and mixed with different concentrations of the sample after 24 h. After having been incubated for another 72 h, MTT solution was added to form formazan, which was followed by dissolved in 100 μL DMSO, and then the absorbance (OD) was measured at 490 nm. Cell viability was calculated as percent changes relative to control.

[5] = test system: B16 cells; assay: Measurement of melanin produced by B16 cells; format: cell-based; conditions: 150 μM, compared with positive control kojic acid; concentration dependent
Description: as §1
B16 cells were seeded into 96-well plates with […], and incubated at 37 °C, 5% CO2, and 90% humidity for 24 h. Having removed the supernatant, 100 μL samples with different concentrations were added. Medium without the sample was added as the blank. After incubation for another 72 h, the cells were dissolved in 100 μL of 2 N NaOH, and then incubated at 80 °C. The absorbance (OD) was measured at 450 nm.

[6] = DPPH radical scavenging activity assay; conditions: concentration 100 μg/mL

Structure (SMILES)	Inhibitory rate (%), DPPH (Table S4) [1] [%]	DPPH Inhibitory Rate (%) [1] [%]	ABTS IC50 ± SD [2] [µg/mL]	Inhibitory rate (%), ABTS (Table S4) [2] [%]	ABTS Inhibitory Rate (%) [2] [%]	DPPH IC50 ± SD [1] [µg/mL]	IC50 [2] [µM]	ABTS free radical scavenging rate [3] [%]	Toxicity to B16 cells [4]	Melanin production inhibition activity in B16 cells [5]	DPPH free radical scavenging rate [6] [%]	IC50 [1] [µM]
COc1ccc([C@H]2OC[C@H]3[C@@H]2CO[C@@H]3c2ccc(OC)c(O[C@@H]3O[C@H](CO)[C@@H](O)[C@H](O)[C@H]3O)c2)cc1O [Compound 22, 4,4′-dimethoxy-3′-hydroxy-7,9′:7′,9-diepoxylignan-3-O-β-D-glucopyranoside]	36.91 ± 2.04	36.91 ± 2.04	33.32 ± 0.29	91.51 ± 0.21	91.51 ± 0.21	–	–	–	–	–	–	–
OC[C@H]1O[C@@H](Oc2ccccc2O)[C@H](O)[C@@H](O)[C@@H]1O [Compound 21, pyrocatechol 1-O-β-D-glucopyranoside]	31.39 ± 3.99	31.39 ± 3.99	46.03 ± 0.27	92.57 ± 0.27	92.57 ± 0.27	≥ 200	169	–	–	–	–	–
COc1cc(O)c2c(=O)cc(-c3ccccc3)oc2c1 [Compound 13, tectochrysin]	18.61 ± 0.62	18.61 ± 0.62	20.81 ± 0.29	91.93 ± 1.68	91.93 ± 1.68	–	–	–	–	–	–	–
COC(=O)[C@H]1O[C@@H](Oc2c(-c3ccc(O)cc3)oc3cc(O)cc(O)c3c2=O)[C@H](O[C@@H]2O[C@@H](C)[C@H](O)[C@@H](O)[C@H]2O)[C@@H](O)[C@@H]1O [Compound 9, kaempferol 3-O-α-L-rhamnosyl-(1 → 2)-(β-D-glucuronatemethyl ester)]	43.07 ± 3.99	43.07 ± 3.99	6.20 ± 0.05	92.39 ± 0.27	92.39 ± 0.27	–	–	–	–	–	–	–
Cc1c(C)c2c(c(C)c1O)CCC(C)(C(=O)O)O2 (stereo not shown) [trolox, Trolox, reference compound]	–	–	31.61 ± 0.60	92.69 ± 0.03	92.69 ± 0.03	–	–	91.6	–	–	–	–
COC(=O)C1OC(Oc2c(-c3ccc(O)cc3)oc3cc(O)cc(O)c3c2=O)C(OC2OC(C)C(O)C(O)C2O)C(OC(C)=O)C1OC(C)=O [Compound 2, Kaempferol 3-O-α-L-rhamnosyl-(1 → 2)-(3″,4″-diacetyl-β-D-glucuronatemethyl ester)]	22.77 ± 1.85	22.77 ± 1.85	6.42 ± 0.12	93.04 ± 0.10	93.04 ± 0.10	–	–	–	no toxicity	stronger inhibitory effects than positive control (kojic acid)	–	–
O=C1C[C@@H](c2ccccc2)Oc2cc(O)cc(O)c21 [Compound 14, pinocembrin]	27.53 ± 1.96	27.53 ± 1.96	27.73 ± 0.69	78.11 ± 0.32	78.11 ± 0.32	–	–	–	–	–	–	–
COc1cc(CC/C=C/C(=O)CCc2ccc(O)c(OC)c2)ccc1O [Compound 8, gingerenone A]	52.84 ± 2.47	52.84 ± 2.47	36.06 ± 1.07	90.81 ± 0.24	90.81 ± 0.24	–	–	–	–	–	–	–
O=C1O[C@H]([C@@H](O)CO)C(O)=C1O [Vitamin C, reference compound]	85.44 ± 0.34	85.44 ± 0.34	–	–	–	6.20 ± 0.41	–	–	–	–	72.7	–
OC[C@H]1O[C@@H](OCc2ccccc2)[C@H](O)[C@@H](O)[C@@H]1O [Compound 17, benzyl O-β-D-glucopyranoside]	25.74 ± 1.49	25.74 ± 1.49	–	–	–	–	–	–	–	–	–	–
COc1ccc(-c2oc3cc(OC)cc(O)c3c(=O)c2O)cc1 [Compound 12, 3,5-dihydroxy-4′,7-dimethoxyflavone]	79.80 ± 2.02	79.80 ± 2.02	8.55 ± 0.08	75.07 ± 0.46	75.07 ± 0.46	23.15 ± 3.24	–	–	–	–	–	–
O=c1ccc2c(O)cc3c(c2o1)C[C@@H](O)[C@@H](c1ccc(O)c(O)c1)O3 [Compound 15, isoepiphyllocoumarin]	36.54 ± 3.60	36.54 ± 3.60	30.57 ± 0.93	71.48 ± 0.32	71.48 ± 0.32	–	–	–	–	–	–	–
COc1cc(CCC(=O)CCCCc2ccccc2)ccc1O [Compound 6, yakuchinone A]	18.77 ± 1.28	18.77 ± 1.28	–	4.42 ± 0.12	4.42 ± 0.12	–	–	–	–	–	–	–
COc1cc(O)cc(OC)c1O[C@@H]1O[C@H](CO)[C@@H](O)[C@H](O)[C@H]1O [Compound 19, 4-hydroxy-2,6-dimethoxyphenyl-β-D-glucoside]	60.59 ± 0.17	60.59 ± 0.17	17.50 ± 0.23	92.57 ± 0.10	92.57 ± 0.10	114.44 ± 0.14	52.9	–	–	–	–	345
COc1cc(O)ccc1O[C@@H]1O[C@H](CO)[C@@H](O)[C@H](O)[C@H]1O [Compound 20, 1,4-dihydroxyl-3-methoxyphenyl-4-O-β-D-glucopyranoside]	84.06 ± 1.79	84.06 ± 1.79	8.20 ± 0.14	92.80 ± 0.31	92.80 ± 0.31	23.21 ± 2.88	27.2	–	–	–	–	77
COc1cc(CC(O)C(O)CC2OC(CC(O)C(O)Cc3ccc(O)c(OC)c3)C3C(c4cc(OC)c(O)c(OC)c4)OC(c4cc(OC)c(O)c(OC)c4)C23)ccc1O (stereo not shown) [Compound 1, Aloxy A]	50.74 ± 2.31	50.74 ± 2.31	39.59 ± 0.53	91.09 ± 0.55	91.09 ± 0.55	–	–	–	no toxicity	stronger inhibitory effects than positive control (kojic acid)	–	–
O=c1ccc2c3c(c(O)cc2o1)C[C@@H](O)[C@@H](c1ccc(O)c(O)c1)O3 [Compound 16, epiphyllocoumarin]	76.93 ± 1.34	76.93 ± 1.34	8.49 ± 0.06	92.51 ± 0.27	92.51 ± 0.27	7.29 ± 0.60	–	–	–	–	–	–
COc1cc(CCC(=O)CC(O)CCc2ccc(O)c(OC)c2)ccc1O (stereo not shown) [Compound 7, hexahydrocurcumin]	35.80 ± 0.77	35.80 ± 0.77	13.17 ± 0.18	91.09 ± 0.41	91.09 ± 0.41	–	–	–	no toxicity	stronger inhibitory effects than positive control (kojic acid)	–	–
